Measured values from the NIST ThermoML archive (doi:10.1021/acs.jced.6b00121).

Experiment: xn = mol fraction of the nth substance listed
Conditions: 100 kPa, Liquid; for mass density: Vibrating tube method; for viscosity: Falling or rolling sphere viscometry

CCCCCCCCCCC [undecane] + CCCCCCO
Conditions | mass density [kg/m3] | viscosity [mPa·s]
323.15 K, x1 = 0.1011 | 783.63 | –
323.15 K, x1 = 0.1989 | 772.51 | –
323.15 K, x1 = 0.2998 | 762.31 | –
323.15 K, x1 = 0.4001 | 753.47 | –
323.15 K, x1 = 0.4994 | 745.77 | –
323.15 K, x1 = 0.6004 | 738.74 | –
323.15 K, x1 = 0.6989 | 732.65 | –
323.15 K, x1 = 0.8001 | 727.06 | –
323.15 K, x1 = 0.8991 | 722.24 | –
323.15 K, x1 = 1 | 718.11 | –
328.15 K, x1 = 0.1011 | 779.82 | 1.612
328.15 K, x1 = 0.1989 | 768.66 | 1.374
328.15 K, x1 = 0.2998 | 758.44 | 1.18
328.15 K, x1 = 0.4001 | 749.58 | 1.039
328.15 K, x1 = 0.4994 | 741.89 | 0.93
328.15 K, x1 = 0.6004 | 734.86 | 0.862
328.15 K, x1 = 0.6989 | 728.77 | 0.793
328.15 K, x1 = 0.8001 | 723.2 | 0.747
328.15 K, x1 = 0.8991 | 718.41 | 0.724
328.15 K, x1 = 1 | 714.39 | 0.692
333.15 K, x1 = 0.1011 | 775.97 | 1.466
333.15 K, x1 = 0.1989 | 764.78 | 1.24
333.15 K, x1 = 0.2998 | 754.53 | 1.073
333.15 K, x1 = 0.4001 | 745.66 | 0.955
333.15 K, x1 = 0.4994 | 737.97 | 0.859
333.15 K, x1 = 0.6004 | 730.93 | 0.801
333.15 K, x1 = 0.6989 | 724.87 | 0.738
333.15 K, x1 = 0.8001 | 719.31 | 0.699
333.15 K, x1 = 0.8991 | 714.55 | 0.681
333.15 K, x1 = 1 | 710.68 | 0.651
338.15 K, x1 = 0.1011 | 772.08 | 1.318
338.15 K, x1 = 0.1989 | 760.84 | 1.124
338.15 K, x1 = 0.2998 | 750.57 | 0.982
338.15 K, x1 = 0.4001 | 741.7 | 0.878
338.15 K, x1 = 0.4994 | 734.01 | 0.796
338.15 K, x1 = 0.6004 | 726.99 | 0.744
338.15 K, x1 = 0.6989 | 720.93 | 0.691
338.15 K, x1 = 0.8001 | 715.39 | 0.656
338.15 K, x1 = 0.8991 | 710.68 | 0.641
338.15 K, x1 = 1 | 706.95 | 0.615
343.15 K, x1 = 0.1011 | 768.13 | 1.189
343.15 K, x1 = 0.1989 | 756.86 | 1.025
343.15 K, x1 = 0.2998 | 746.58 | 0.901
343.15 K, x1 = 0.4001 | 737.7 | 0.811
343.15 K, x1 = 0.4994 | 730.01 | 0.739
343.15 K, x1 = 0.6004 | 723 | 0.695
343.15 K, x1 = 0.6989 | 716.95 | 0.647
343.15 K, x1 = 0.8001 | 711.44 | 0.616
343.15 K, x1 = 0.8991 | 706.79 | 0.604
343.15 K, x1 = 1 | 703.22 | 0.58
348.15 K, x1 = 0.1011 | 764.12 | 1.054
348.15 K, x1 = 0.1989 | 752.83 | 0.934
348.15 K, x1 = 0.2998 | 742.54 | 0.828
348.15 K, x1 = 0.4001 | 733.66 | 0.75
348.15 K, x1 = 0.4994 | 725.98 | 0.687
348.15 K, x1 = 0.6004 | 718.97 | 0.652
348.15 K, x1 = 0.6989 | 712.94 | 0.607
348.15 K, x1 = 0.8001 | 707.47 | 0.58
348.15 K, x1 = 0.8991 | 702.87 | 0.571
348.15 K, x1 = 1 | 699.47 | 0.549
353.15 K, x1 = 0.1011 | 760.07 | 0.981
353.15 K, x1 = 0.1989 | 748.76 | 0.855
353.15 K, x1 = 0.2998 | 738.45 | 0.765
353.15 K, x1 = 0.4001 | 729.57 | 0.696
353.15 K, x1 = 0.4994 | 721.9 | 0.642
353.15 K, x1 = 0.6004 | 714.9 | 0.611
353.15 K, x1 = 0.6989 | 708.9 | 0.572
353.15 K, x1 = 0.8001 | 703.47 | 0.546
353.15 K, x1 = 0.8991 | 698.94 | 0.54
353.15 K, x1 = 1 | 695.72 | 0.522
358.15 K, x1 = 0.1011 | 755.96 | 0.895
358.15 K, x1 = 0.1989 | 744.62 | 0.787
358.15 K, x1 = 0.2998 | 734.31 | 0.707
358.15 K, x1 = 0.4001 | 725.43 | 0.649
358.15 K, x1 = 0.4994 | 717.76 | 0.6
358.15 K, x1 = 0.6004 | 710.79 | 0.573
358.15 K, x1 = 0.6989 | 704.82 | 0.54
358.15 K, x1 = 0.8001 | 699.43 | 0.516
358.15 K, x1 = 0.8991 | 694.99 | 0.512
358.15 K, x1 = 1 | 691.96 | 0.497
363.15 K, x1 = 0.1011 | 751.78 | 0.82
363.15 K, x1 = 0.1989 | 740.43 | 0.726
363.15 K, x1 = 0.2998 | 730.12 | 0.657
363.15 K, x1 = 0.4001 | 721.24 | 0.605
363.15 K, x1 = 0.4994 | 713.59 | 0.562
363.15 K, x1 = 0.6004 | 706.64 | 0.54
363.15 K, x1 = 0.6989 | 700.7 | 0.512
363.15 K, x1 = 0.8001 | 695.37 | 0.49
363.15 K, x1 = 0.8991 | 691.02 | 0.487
363.15 K, x1 = 1 | 688.18 | 0.475
